Data reported in ChEMBL document CHEMBL1139539, “Structure-based characterization and optimization of novel hydrophobic binding interactions in a series of pyrrolidine influenza neuraminidase inhibitors” (J Med Chem, 2005).

What follows are compounds tested against Neuraminidase (Influenza B virus (strain B/Lee/1940), UniProt P03474) (assay: Effective concentration against neuraminidase of Influenza B virus B/Memphis strain).
Sequence of Neuraminidase (P03474 whole entry): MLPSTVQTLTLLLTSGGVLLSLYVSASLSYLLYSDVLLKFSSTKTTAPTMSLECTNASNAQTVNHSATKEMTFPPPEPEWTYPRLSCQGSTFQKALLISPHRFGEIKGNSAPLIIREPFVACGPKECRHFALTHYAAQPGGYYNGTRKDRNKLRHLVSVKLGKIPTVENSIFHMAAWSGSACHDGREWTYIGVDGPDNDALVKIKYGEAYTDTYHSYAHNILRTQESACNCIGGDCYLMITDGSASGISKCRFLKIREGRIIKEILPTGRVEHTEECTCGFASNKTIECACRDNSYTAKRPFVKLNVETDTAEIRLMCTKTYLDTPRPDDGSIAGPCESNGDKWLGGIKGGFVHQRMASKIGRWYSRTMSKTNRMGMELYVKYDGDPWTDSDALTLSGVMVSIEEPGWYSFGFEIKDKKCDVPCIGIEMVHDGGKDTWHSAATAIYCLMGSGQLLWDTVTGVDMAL

In order of falling EC50:
1. C=C[C@@H]1C[C@H](C(=O)O)N[C@H]1[C@H](CC(C)C)NC(C)=O  23 µM
2. CC(=O)N[C@@H](CC(C)C)[C@@H]1N[C@@H](C(=O)O)C[C@H]1c1c[nH]cn1  11 µM
3. CC(=O)N[C@@H](CC(C)C)[C@@H]1N[C@@H](C(=O)O)C[C@H]1C=C(F)F  9 µM
4. CC(=O)N[C@@H](CC(C)C)[C@@H]1N[C@@H](C(=O)O)C[C@H]1c1nccs1  6 µM
